# From patent US7495018B2, “Substituted 1,3-thiazole compounds, their production and use” (Takeda Pharmaceutical Company Limited, priority 2000, dated 2009)
row,melting point,Compound
1,207 to 208 °C,"CSc1ccc(-c2nc(-c3cccc(Cl)c3)c(-c3ccnc(NC(C)=O)c3)s2)cc1 [Example Compound 30-5, N-[4-[4-(3-chlorophenyl)-2-[4-(methylthio)phenyl]-1,3-thiazol-5-yl]-2-pyridyl]acetamide]"
2,134 to 135 °C,"CCC(=O)Nc1cc(-c2sc(C)nc2-c2cccc(Cl)c2)ccn1 [Example Compound 30-7, N-[4-[4-(3-chlorophenyl)-2-methyl-1,3-thiazol-5-yl]-2-pyridyl]propionamide]"
3,132 to 133 °C,"CCC(=O)Nc1cc(-c2sc(CC)nc2-c2cccc(Cl)c2)ccn1 [Example Compound 30-8, N-[4-[4-(3-chlorophenyl)-2-ethyl-1,3-thiazol-5-yl]-2-pyridyl]propionamide]"
4,103 to 104 °C,"CCCc1nc(-c2cccc(Cl)c2)c(-c2ccnc(NC(=O)CC)c2)s1 [Example Compound 30-9, N-[4-[4-(3-chlorophenyl)-2-propyl-1,3-thiazol-5-yl]-2-pyridyl]propionamide]"
5,187 to 188 °C,"CCC(=O)Nc1cc(-c2sc(CC)nc2-c2cccs2)ccn1 [Example Compound 30-10, N-[4-[2-ethyl-4-(2-thienyl)-1,3-thiazol-5-yl]2-pyridyl]propionamide]"
6,187 to 188 °C,"CCC(=O)Nc1cc(-c2sc(-c3ccc(SC)cc3)nc2-c2cccc(Cl)c2)ccn1 [Example Compound 30-11, N-[4-[4-(3-chlorophenyl)-2-[4-(methylthio)phenyl]-1,3-thiazol-5-yl]-2-pyridyl]propionamide]"
7,119 to 120 °C,"CSc1ccc(-c2nc(-c3cccc(Cl)c3)c(-c3ccnc(NC(=O)C(C)(C)C)c3)s2)cc1 [Example Compound 30-12, N-[4-[4-(3-chlorophenyl)-2-[4-(methylthio)phenyl]-1,3-thiazol-5-yl]-2-pyridyl]pivalamide]"
8,67 to 69 °C,"CCc1nc(-c2cccc(C)c2)c(-c2ccnc(NCC3CCCC3)c2)s1 [Example Compound 32, N-(cyclopentylmethyl)-4-[2-ethyl-4-(3-methylphenyl)-1,3-thiazol-5-yl]-2-pyridylamine]"
9,188 to 189 °C,"Cc1cccc(-c2nc(N)sc2-c2ccnc(N3CCOCC3)c2)c1 [Example Compound 34-1, [4-(3-methylphenyl)-5-(2-morpholino-4-pyridyl)-1,3-thiazol-2-yl]amine]"
10,168 to 169 °C,"Cc1cccc(-c2nc(N)sc2-c2ccnc(NC3CCCCC3)c2)c1 [Example Compound 34-2, [5-(2-cyclohexylamino-4-pyridyl)-4-(3-methylphenyl)-1,3-thiazol-2-yl]amine]"
11,169 to 170 °C,"Cc1cccc(-c2nc(N)sc2-c2ccnc(NC3CCCC3)c2)c1 [Example Compound 34-3, [5-(2-cyclopentylamino-4-pyridyl)-4-(3-methylphenyl)-1,3-thiazol-2-yl]amine]"
12,206 to 208 °C,"Nc1nc(-c2cccc(Cl)c2)c(-c2ccnc(N3CCCCC3)c2)s1 [Example Compound 35-1, [4-(3-chlorophenyl)-5-(2-piperidino-4-pyridyl)-1,3-thiazol-2-yl]amine]"
13,155 to 157 °C,"Cc1cccc(-c2nc(-c3ccc(S(C)(=O)=O)cc3)sc2N2C=CC=CC2N2CCCCC2)c1 (centres unmarked) [Example Compound 35-2, 4-(3-methylphenyl)-2-(4-methylsulfonylphenyl)-5-(2-piperidino-1-pyridyl)-1,3-thiazole]"
14,194 to 195 °C,"Nc1nc(-c2ccc(F)cc2)c(-c2ccnc(NC3CCCCC3)c2)s1 [Example Compound 36-1, [5-(2-cyclohexylamino-4-pyridyl)-4-(4-fluorophenyl)-1,3-thiazol-2-yl]amine]"
15,211 to 212 °C,"CNc1nc(-c2cccc(C)c2)c(-c2ccnc(NC3CCCCC3)c2)s1 [Example Compound 36-2, N-methyl-[5-(2-cyclohexylamino-4-pyridyl)-4-(3-methylphenyl)-1,3-thiazol-2-yl]amine]"
16,170 to 172 °C,"CNc1nc(-c2cccc(C)c2)c(-c2ccnc(NC3CCCC3)c2)s1 [Example Compound 36-3, N-methyl-[5-(2-cyclopentylamino-4-pyridyl)-4-(3-methylphenyl)-1,3-thiazol-2-yl]amine]"
17,110 to 112 °C,"CCc1nc(-c2cccc(C)c2)c(-c2ccnc(NC3CCCCC3)c2)s1 [Example Compound 36-4, N-cyclohexyl-4-[2-ethyl-4-(3-methylphenyl)-1,3-thiazol-5-yl]-2-pyridylamine]"
18,197 to 199 °C,"Cc1cccc(-c2nc(-c3ccc(S(C)(=O)=O)cc3)sc2-c2ccnc(NC3CCCCC3)c2)c1 [Example Compound 36-5, N-cyclohexyl-4-[4-(3-methylphenyl)-2-(4-methylsulfonylphenyl)-1,3-thiazol-5-yl]-2-pyridylamine]"
19,154 to 156 °C,"Cc1cccc(-c2nc(-c3ccc(S(C)(=O)=O)cc3)sc2-c2ccnc(NC3CCCC3)c2)c1 [Example Compound 36-7, N-cyclopentyl-4-[4-(3-methylphenyl)-2-(4-methylsulfonylphenyl)-1,3-thiazol-5-yl]-2-pyridylamine]"
20,200 to 202 °C,"Cc1cccc(-c2nc(-c3ccc(S(C)(=O)=O)cc3)sc2-c2ccnc(N3CCOCC3)c2)c1 [Example Compound 36-8, 4-(3-methylphenyl)-2-(4-methylsulfonylphenyl)-5-(2-morpholino-4-pyridyl)-1,3-thiazole]"
21,69 to 71 °C,"CCc1nc(-c2cccc(C)c2)c(-c2ccnc(N3CCOCC3)c2)s1 [Example Compound 36-9, 2-ethyl-4-(3-methylphenyl)-5-(2-morpholino-4-pyridyl)-1,3-thiazole]"
22,106 to 107 °C,"CCc1nc(-c2cccc(Cl)c2)c(-c2ccnc(NC3CCCCC3)c2)s1 [Example Compound 36-10, 4-[4-(3-chlorophenyl)-2-ethyl-1,3-thiazol-5-yl]-N-cyclohexyl-2-pyridylamine]"
23,110 to 111 °C,"CCc1nc(-c2cccc(Cl)c2)c(-c2ccnc(NC3CCCC3)c2)s1 [Example Compound 36-11, 4-[4-(3-chlorophenyl)-2-ethyl-1,3-thiazol-5-yl]-N-cyclopentyl-2-pyridylamine]"
24,173 to 174 °C,"Cc1cccc(-c2nc(-c3ccc(S(C)(=O)=O)cc3)sc2-c2ccnc(N(C)C3CCCCC3)c2)c1 [Example Compound 37-2, N-cyclohexyl-N-methyl-4-[4-(3-methylphenyl)-2-(4-methylsulfonylphenyl)-1,3-thiazol-5-yl]-2-pyridylamine]"
25,157 to 159 °C,"Cc1cccc(-c2nc(-c3ccc(S(C)(=O)=O)cc3)sc2-c2ccnc(NCC3CCCCC3)c2)c1 [Example Compound 37-3, N-cyclohexylmethyl-4-[4-(3-methylphenyl)-2-(4-methylsulfonylphenyl)-1,3-thiazol-5-yl]-2-pyridylamine]"
26,199 to 201 °C,"Cc1cccc(-c2nc(-c3ccc(S(C)(=O)=O)cc3)sc2-c2ccnc(N3CCCC3)c2)c1 [Example Compound 37-4, 4-(3-methylphenyl)-2-(4-methylsulfonylphenyl)-5-[2-(1-pyrrolidinyl)-4-pyridyl]-1,3-thiazole]"
